According to ChEMBL document CHEMBL6083204, “Synthesis of a celastrol derivative as a cancer stem cell inhibitor through regulation of the STAT3 pathway for treatment of ovarian cancer” (RSC Med Chem, 2024):
Active and inactive are the calls of the source. The rule behind the calls is not given here.

Legend:
SK-OV-3 [1] = test: Induction of apoptosis in human SK-OV-3 cells assessed as viable cells at 0.2 uM incubated for 24 hrs by Annexin V-FITC/7-AAD staining based flow cytometry (reference value: 94.6 %); assay type: functional; settings: read-out: Activity
[2] = Cytotoxicity against human IOSE80 cells assessed as inhibition of cell growth incubated for 72 hrs by MTT assay; assay type: toxicity, cell-based
A2780 [3] = test: Inhibition of cell migration in human A2780 cells assessed as reduction in number of migrated cells at 0.1 to 0.4 uM incubated for 24 hrs by crystal violet staining based transwell assay; assay type: functional; settings: dose 0.1-0.4 µM
A2780 [4] = test: Induction of apoptosis in human A2780 cells assessed as necrotic cells at 0.8 uM incubated for 24 hrs by Annexin V-FITC/7-AAD staining based flow cytometry (reference value: 1 %); assay type: functional
[5] = molecular target: Signal transducer and activator of transcription 3 (Homo sapiens) (UniProt P40763); test: Inhibition of STAT3 in human SK-OV-3 cells assessed as downregulation of cytoplasmic STAT3 expression at 0.2 uM incubated for 24 hrs by Hoechst33342 staining based immunofluorescence assay; assay type: cell-based
SK-OV-3 [6] = test: Induction of cell cycle arrest in human SK-OV-3 cells assessed as reduction of Cyclin D1 expression at 0.2 uM incubated for 24 hrs by flow cytometry (reference value: 93.8 %); assay type: functional; set-up: scale not given: the % may be the effect or the level left
Mitochondrial membrane [7] = test: Induction of mitochondrial membrane potential loss in human SK-OV-3 cells at 0.1 uM incubated for 24 hrs by JC-1 staining based flow cytometry (reference value: 73.6 %)
SK-OV-3 [8] = test: Induction of cell cycle arrest in human SK-OV-3 cells assessed as reduction of CDK4 expression at 0.8 uM incubated for 24 hrs by flow cytometry (reference value: 66.8 %); assay type: functional; set-up: scale not given: the % may be the effect or the level left
[9] = molecular target: Signal transducer and activator of transcription 3 (Homo sapiens) (UniProt P40763); test: Inhibition of STAT3 in human SK-OV-3 cells assessed as downregulation of total STAT3 expression incubated for 24 hrs by Western blotting analysis; assay type: cell-based
A2780 [10] = test: Antiproliferative activity against human A2780 cells assessed as decrease in ALDH positive cells at 0.4 uM incubated for 24 hrs by ALDEFLUOR staining based flow cytometry (reference value: 32.5 %); assay type: functional; set-up: scale not given: the % may be the effect or the level left
SK-OV-3 [11] = test: Induction of cell cycle arrest in human SK-OV-3 cells assessed as reduction of CDK4 expression at 0.2 uM incubated for 24 hrs by flow cytometry (reference value: 66.8 %); assay type: functional; set-up: scale not given: the % may be the effect or the level left
SK-OV-3 [12] = test: Induction of apoptosis in human SK-OV-3 cells assessed as late apoptotic cells at 0.2 uM incubated for 24 hrs by Annexin V-FITC/7-AAD staining based flow cytometry (reference value: 3.7 %); assay type: functional
SK-OV-3 [13] = test: Inhibition of human SK-OV-3 cells spheroid formation assessed as reduction in spheroid size at 0.1 to 0.4 uM incubated for 10 days by inverted microscopic analysis; assay type: functional, cell-based; settings: dose 0.1-0.4 µM, time 10.0 day
A2780 [14] = test: Induction of cell cycle arrest in human A2780 cells assessed as accumulation of cells at G0/G1 phase at 0.8 uM incubated for 24 hrs by BrdU staining based flow cytometry (reference value: 42.4 %); assay type: functional
A2780 [15] = test: Induction of cell cycle arrest in human A2780 cells assessed as accumulation of cells at G2/M phase at 0.4 uM incubated for 24 hrs by BrdU staining based flow cytometry (reference value: 6.2 %); assay type: functional
SK-OV-3 [16] = test: Induction of apoptosis in human SK-OV-3 cells assessed as viable cells at 0.8 uM incubated for 24 hrs by Annexin V-FITC/7-AAD staining based flow cytometry (reference value: 94.6 %); assay type: functional; settings: read-out: Activity
A2780 [17] = test: Induction of apoptosis in human A2780 cells assessed as viable cells at 0.8 uM incubated for 24 hrs by Annexin V-FITC/7-AAD staining based flow cytometry (reference value: 95 %); assay type: functional; settings: read-out: Activity
[18] = molecular target: Signal transducer and activator of transcription 3 (Homo sapiens) (UniProt P40763); test: Inhibition of STAT3 in human SK-OV-3 cells assessed as downregulation of cytoplasmic STAT3 phosphorylation at Tyr705 residue at 0.2 uM incubated for 24 hrs by Hoechst33342 staining based immunofluorescence assay; assay type: cell-based
SK-OV-3 [19] = test: Inhibition of colony formation in human SK-OV-3 cells assessed as reduction in colony size incubated for 10 days by crystal violet staining based analysis; assay type: functional, cell-based; settings: time 10.0 day
A2780 [20] = test: Induction of cell cycle arrest in human A2780 cells assessed as reduction of CDK4 expression at 0.4 uM incubated for 24 hrs by flow cytometry (reference value: 93.6 %); assay type: functional; set-up: scale not given: the % may be the effect or the level left
SK-OV-3 [21] = test: Induction of cell cycle arrest in human SK-OV-3 cells assessed as accumulation of cells at S phase at 0.4 uM incubated for 24 hrs by BrdU staining based flow cytometry (reference value: 33.6 %); assay type: functional
Mitochondrial membrane [22] = test: Induction of mitochondrial membrane potential loss in human SK-OV-3 cells at 0.4 uM incubated for 24 hrs by JC-1 staining based flow cytometry (reference value: 73.6 %)
A2780 [23] = test: Induction of apoptosis in human A2780 cells assessed as increase in caspase-8 activity at 0.2 uM incubated for 24 hrs by flow cytometry (reference value: 1.2 %); assay type: functional
SK-OV-3 [24] = test: Antiproliferative activity against human SK-OV-3 cells assessed as decrease in CD44 positive CD24 negative cells expression at 0.2 uM incubated for 24 hrs by FITC staining based flow cytometry (reference value: 85.6 %); assay type: functional; set-up: scale not given: the % may be the effect or the level left
[25] = molecular target: Signal transducer and activator of transcription 3 (Homo sapiens) (UniProt P40763); test: Inhibition of STAT3 in human A2780 cells assessed as downregulation of cytoplasmic STAT3 phosphorylation at Tyr705 residue at 0.2 uM incubated for 24 hrs by Hoechst33342 staining based immunofluorescence assay; assay type: cell-based
SK-OV-3 [26] = test: Antiproliferative activity against human SK-OV-3 cells assessed as decrease in CD44 positive CD24 negative cells expression at 0.4 uM incubated for 24 hrs by FITC staining based flow cytometry (reference value: 85.6 %); assay type: functional; set-up: scale not given: the % may be the effect or the level left
A2780 [27] = test: Inhibition of human A2780 cells spheroid formation assessed as reduction in spheroid size at 0.1 to 0.4 uM incubated for 10 days by inverted microscopic analysis; assay type: functional, cell-based; settings: dose 0.1-0.4 µM, time 10.0 day
A2780 [28] = test: Induction of apoptosis in human A2780 cells assessed as early apoptotic cells at 0.2 uM incubated for 24 hrs by Annexin V-FITC/7-AAD staining based flow cytometry (reference value: 1.9 %); assay type: functional
SK-OV-3 [29] = test: Induction of apoptosis in human SK-OV-3 cells assessed as early apoptotic cells at 0.8 uM incubated for 24 hrs by Annexin V-FITC/7-AAD staining based flow cytometry (reference value: 1.6 %); assay type: functional
SK-OV-3 [30] = test: Induction of cell cycle arrest in human SK-OV-3 cells assessed as reduction of CDK2 expression at 0.2 uM incubated for 24 hrs by flow cytometry (reference value: 94.4 %); assay type: functional; set-up: scale not given: the % may be the effect or the level left
SK-OV-3 [31] = test: Antitumor activity against human SK-OV-3 cells xenografted in BALB/c mouse assessed as reduction in number of tumor cells at 2 to 5 mg/kg,ip administrated for 21 consecutive days by hematoxylin and eosin staining based assay; assay type: functional, organism-based; settings: dose 2-5 mg/kg
[32] = molecular target: Signal transducer and activator of transcription 3 (Homo sapiens) (UniProt P40763); test: Inhibition of STAT3 in human SK-OV-3 cells assessed as downregulation of Mcl-1 expression at 0.1 to 0.4 uM incubated for 24 hrs by Western blotting analysis; assay type: cell-based; settings: dose 0.1-0.4 µM

Signal transducer and activator of transcription 3 (Homo sapiens), sequence (P40763 whole entry): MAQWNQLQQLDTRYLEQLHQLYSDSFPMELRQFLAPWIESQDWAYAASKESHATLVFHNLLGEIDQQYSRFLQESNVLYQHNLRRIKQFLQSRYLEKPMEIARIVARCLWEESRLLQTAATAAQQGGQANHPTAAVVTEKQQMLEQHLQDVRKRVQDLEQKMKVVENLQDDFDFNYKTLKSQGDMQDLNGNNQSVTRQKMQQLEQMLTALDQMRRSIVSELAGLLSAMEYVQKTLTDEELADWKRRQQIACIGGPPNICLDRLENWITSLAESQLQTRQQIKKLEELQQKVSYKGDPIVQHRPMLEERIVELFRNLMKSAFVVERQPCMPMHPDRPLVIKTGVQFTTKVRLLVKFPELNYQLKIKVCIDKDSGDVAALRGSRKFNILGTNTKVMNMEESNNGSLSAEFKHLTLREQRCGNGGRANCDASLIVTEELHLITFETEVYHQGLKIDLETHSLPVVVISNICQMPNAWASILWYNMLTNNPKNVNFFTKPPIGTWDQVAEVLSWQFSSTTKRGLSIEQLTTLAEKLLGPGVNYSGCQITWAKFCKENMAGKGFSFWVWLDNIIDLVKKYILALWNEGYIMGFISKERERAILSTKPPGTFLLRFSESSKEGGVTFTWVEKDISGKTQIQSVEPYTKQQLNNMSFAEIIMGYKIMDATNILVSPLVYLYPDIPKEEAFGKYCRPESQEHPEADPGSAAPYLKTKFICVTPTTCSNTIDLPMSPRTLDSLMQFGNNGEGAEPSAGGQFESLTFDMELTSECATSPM

CC1=C(O)C(=O)C=C2C1=CC=C1[C@@]2(C)CC[C@@]2(C)[C@@H]3C[C@](C)(C(=O)N4CCNCC4)CC[C@]3(C)CC[C@]12C
viability at 0.2 µM (SK-OV-3 [1]): 74.2%
IC50 at 72 h [2]: 1010 nM
inhibition (A2780 [3]): Active
Activity (A2780 [4]): 7.1%
inhibition [5]: Active; Showed Mild Inhibition Activity
Activity (SK-OV-3 [6]): 90.3%
Activity (Mitochondrial membrane [7]): 70.7%
Activity (SK-OV-3 [8]): 29.8%
inhibition [9]: Dose-dependent-effect
Activity (A2780 [10]): 0.37%
Activity (SK-OV-3 [11]): 67%
Activity (SK-OV-3 [12]): 7.8%
inhibition (SK-OV-3 [13]): Active
Activity (A2780 [14]): 70.5%
Activity (A2780 [15]): 10.1%
viability at 0.8 µM (SK-OV-3 [16]): 48%
viability at 0.8 µM (A2780 [17]): 24.5%
inhibition [18]: Active; Showed Mild Inhibition Activity
inhibition (SK-OV-3 [19]): Dose-dependent-effect
Activity (A2780 [20]): 17.2%
Activity (SK-OV-3 [21]): 42.9%
Activity (Mitochondrial membrane [22]): 17.2%
Activity (A2780 [23]): 1%
Activity (SK-OV-3 [24]): 64.53%
inhibition [25]: Active; Showed Mild Inhibition Activity
Activity (SK-OV-3 [26]): 51.67%
inhibition (A2780 [27]): Active
Activity (A2780 [28]): 4.4%
Activity (SK-OV-3 [29]): 33.2%
Activity (SK-OV-3 [30]): 91.1%
Activity (SK-OV-3 [31]): Active
inhibition [32]: Active
